# Laboratory results taken from patent publication US9889115B2, “Fitness assay and associated methods” (priority 1998, dated 2018).
# Tests used:
# wild-type HIV protease = wild-type HIV protease (Human immunodeficiency virus type 1 group M subtype B, UniProt P04585); assay: biochemical
# wild-type HIV = assay: wild-type antiretroviral activity (Table 4); settings: Human immunodeficiency virus 1, read-out: ID50
# HIV-1BAL = assay: PHA-PBMC assay, p24 Gag protein production; type: cell-based; settings: Human immunodeficiency virus 1; HIV-1BAL, NSI; PHA-PBMC, p24 (Table 3)
# [1] = system: multidrug-resistant strains of HIV-1; assay: PHA-PBMC p24 assay, panel of eight multidrug-resistant clinical isolates; type: cell-based; settings: eight multidrug-resistant clinical isolates of Table 3
# Procedure: (§1) The patient profiles are shown below in Table 2.
# (§2) To determine protease inhibitory activity against multidrug resistant HIV, the IC50's were measured against a panel of clinically isolated mutant HIV isolates.
# (§3) All drug sensitivities were performed in triplicate. In order to determine whether the HIV isolates were syncitium inducing (SI) or non-syncitium inducing (NSI), an aliquot of viral stock supernatant, containing 100 TCID50, was cultured with 1×10^5 MT-2 cells in a 12-well plate. Cultures were maintained for four weeks and were examined for syncytium formation twice a week.
# wild-type HIV-1 (WT) = assay: IC50 against wild-type HIV-1 (Table 9a); type: cell-based; settings: Human immunodeficiency virus 1; (WT)
# [2] = system: multidrug-resistant HIV-1 clinical isolate, patient 27; assay: microbe, parasite or virus in culture; type: cell-based; settings: Human immunodeficiency virus 1; Patient Isolate 27
# Procedure: (§4) The mutant multidrug-resistant HIV-1 strains corresponding to each patient, numbered 9-35, were genetically analyzed in terms of the nucleic acid sequences of the protease (PR) and a portion of the reverse transcriptase (RT) genes from which mutations in these enzymes were determined. The mutations in the protease and reverse transcriptase of the multidrug-resistant viruses isolated from each patient are shown below in Table 9b.
# [3] = system: multidrug-resistant HIV-1 clinical isolate, patient 15; assay: microbe, parasite or virus in culture; type: cell-based; settings: Human immunodeficiency virus 1; Patient Isolate 15
# Procedure: as §4
# [4] = system: multidrug-resistant HIV-1 clinical isolate, patient 10; assay: microbe, parasite or virus in culture; type: cell-based; settings: Human immunodeficiency virus 1; Patient Isolate 10
# Procedure: as §4
# [5] = system: multidrug-resistant HIV-1 clinical isolate, patient 9; assay: microbe, parasite or virus in culture; type: cell-based; settings: Human immunodeficiency virus 1; Patient Isolate 9
# Procedure: as §4
# [6] = system: multidrug-resistant HIV-1 clinical isolate, patient 16; assay: microbe, parasite or virus in culture; type: cell-based; settings: Human immunodeficiency virus 1; Patient Isolate 16
# Procedure: as §4
# [7] = system: multidrug-resistant HIV-1 clinical isolate, patient 11; assay: microbe, parasite or virus in culture; type: cell-based; settings: Human immunodeficiency virus 1; Patient Isolate 11
# Procedure: as §4
# [8] = system: multidrug-resistant HIV-1 clinical isolate, patient 20; assay: microbe, parasite or virus in culture; type: cell-based; settings: Human immunodeficiency virus 1; Patient Isolate 20
# Procedure: as §4
# [9] = system: multidrug-resistant HIV-1 clinical isolate, patient 31; assay: microbe, parasite or virus in culture; type: cell-based; settings: Human immunodeficiency virus 1; Patient Isolate 31
# Procedure: as §4
# [10] = system: multidrug-resistant HIV-1 clinical isolate, patient 29; assay: microbe, parasite or virus in culture; type: cell-based; settings: Human immunodeficiency virus 1; Patient Isolate 29
# Procedure: as §4
# [11] = system: multidrug-resistant HIV-1 clinical isolate, patient 32; assay: microbe, parasite or virus in culture; type: cell-based; settings: Human immunodeficiency virus 1; Patient Isolate 32
# Procedure: as §4
# [12] = system: multidrug-resistant HIV-1 clinical isolate, patient 14; assay: microbe, parasite or virus in culture; type: cell-based; settings: Human immunodeficiency virus 1; Patient Isolate 14
# Procedure: as §4
# [13] = system: multidrug-resistant HIV-1 clinical isolate, patient 19; assay: microbe, parasite or virus in culture; type: cell-based; settings: Human immunodeficiency virus 1; Patient Isolate 19
# Procedure: as §4
# [14] = system: multidrug-resistant HIV-1 clinical isolate, patient 12; assay: microbe, parasite or virus in culture; type: cell-based; settings: Human immunodeficiency virus 1; Patient Isolate 12
# Procedure: as §4
# [15] = system: multidrug-resistant HIV-1 clinical isolate, patient 33; assay: microbe, parasite or virus in culture; type: cell-based; settings: Human immunodeficiency virus 1; Patient Isolate 33
# Procedure: as §4
# [16] = system: multidrug-resistant HIV-1 clinical isolate, patient 21; assay: microbe, parasite or virus in culture; type: cell-based; settings: Human immunodeficiency virus 1; Patient Isolate 21
# Procedure: as §4
# [17] = system: multidrug-resistant HIV-1 clinical isolate, patient 30; assay: microbe, parasite or virus in culture; type: cell-based; settings: Human immunodeficiency virus 1; Patient Isolate 30
# Procedure: as §4
# [18] = system: multidrug-resistant HIV-1 clinical isolate, patient 35; assay: microbe, parasite or virus in culture; type: cell-based; settings: Human immunodeficiency virus 1; Patient Isolate 35
# Procedure: as §4
# [19] = system: multidrug-resistant HIV-1 clinical isolate, patient 28; assay: microbe, parasite or virus in culture; type: cell-based; settings: Human immunodeficiency virus 1; Patient Isolate 28
# Procedure: as §4
# [20] = system: multidrug-resistant HIV-1 clinical isolate, patient 17; assay: microbe, parasite or virus in culture; type: cell-based; settings: Human immunodeficiency virus 1; Patient Isolate 17
# Procedure: as §4
# [21] = system: multidrug-resistant HIV-1 clinical isolate, patient 18; assay: microbe, parasite or virus in culture; type: cell-based; settings: Human immunodeficiency virus 1; Patient Isolate 18
# Procedure: as §4
# [22] = system: multidrug-resistant HIV-1 clinical isolate, patient 13; assay: microbe, parasite or virus in culture; type: cell-based; settings: Human immunodeficiency virus 1; Patient Isolate 13
# Procedure: as §4
# [23] = system: multidrug-resistant HIV-1 clinical isolate, patient 23; assay: microbe, parasite or virus in culture; type: cell-based; settings: Human immunodeficiency virus 1; Patient Isolate 23
# Procedure: as §4
# [24] = system: multidrug-resistant HIV-1 clinical isolate, patient 34; assay: IC50 against multidrug-resistant clinical isolates (Table 9a); type: cell-based; settings: Human immunodeficiency virus 1
# Procedure: as §4
# [25] = system: multidrug-resistant HIV-1 clinical isolate, patient 22; assay: as above; type: cell-based; settings: Human immunodeficiency virus 1
# Procedure: as §4
# HIV-1LAI = assay: PHA-PBMC assay, p24 Gag protein production; type: cell-based; settings: Human immunodeficiency virus 1; HIV-1LAI, SI; PHA-PBMC, p24 (Table 3)
# [26] = system: multidrug-resistant HIV-1 clinical isolate, patient 3; assay: PHA-PBMC assay, p24 Gag protein production; type: cell-based; settings: Human immunodeficiency virus 1; Patient/Isolate code 3; PHA-PBMC, p24
# Procedure: as §1, §2, §3
# [27] = system: multidrug-resistant HIV-1 clinical isolate, patient 8; assay: PHA-PBMC assay, p24 Gag protein production; type: cell-based; settings: Human immunodeficiency virus 1; Patient/Isolate code 8; PHA-PBMC, p24
# Procedure: as §1, §2, §3
# [28] = system: multidrug-resistant HIV-1 clinical isolate, patient 7; assay: PHA-PBMC assay, p24 Gag protein production; type: cell-based; settings: Human immunodeficiency virus 1; Patient/Isolate code 7; PHA-PBMC, p24
# Procedure: as §1, §2, §3
# [29] = system: multidrug-resistant HIV-1 clinical isolate, patient 2; assay: PHA-PBMC assay, p24 Gag protein production; type: cell-based; settings: Human immunodeficiency virus 1; Patient/Isolate code 2; PHA-PBMC, p24
# Procedure: as §1, §2, §3
# HIV-1ERS104pre = assay: PHA-PBMC assay, p24 Gag protein production; type: cell-based; settings: Human immunodeficiency virus 1; HIV-1ERS104pre, SI; PHA-PBMC, p24
# Procedure: as §1, §2, §3
# [30] = system: multidrug-resistant HIV-1 clinical isolate, patient 1; assay: PHA-PBMC assay, p24 Gag protein production; type: cell-based; settings: Human immunodeficiency virus 1; Patient/Isolate code 1; PHA-PBMC, p24
# Procedure: as §1, §2, §3
# [31] = system: multidrug-resistant HIV-1 clinical isolate, patient 6; assay: PHA-PBMC assay, p24 Gag protein production; type: cell-based; settings: Human immunodeficiency virus 1; Patient/Isolate code 6; PHA-PBMC, p24
# Procedure: as §1, §2, §3
# [32] = system: multidrug-resistant HIV-1 clinical isolate, patient 4; assay: PHA-PBMC assay, p24 Gag protein production; type: cell-based; settings: Human immunodeficiency virus 1; Patient/Isolate code 4; PHA-PBMC, p24
# Procedure: as §1, §2, §3
# [33] = system: multidrug-resistant HIV-1 clinical isolate, patient 5; assay: PHA-PBMC assay, p24 Gag protein production; type: cell-based; settings: Human immunodeficiency virus 1; Patient/Isolate code 5; PHA-PBMC, p24
# Procedure: as §1, §2, §3
smiles,measurement,setting,value
COc1ccc(S(=O)(=O)N(CC(C)C)CC(O)C(Cc2ccccc2)NC(=O)OC2COC3OCCCC23)cc1 (centres unmarked),Ki,wild-type HIV protease,2.2 nM
same,IC50,wild-type HIV,4.5 nM
"CC(C)c1nc(CN(C)C(=O)N[C@H](C(=O)N[C@@H](Cc2ccccc2)C[C@H](O)[C@H](Cc2ccccc2)NC(=O)OCc2cncs2)C(C)C)cs1 [RTV, Ritonavir]",IC50,HIV-1BAL,18 nM
same,potency against the multidrug-resistant strains (in words),[1],virtually inactive
same,IC50,wild-type HIV-1 (WT),19 nM
same,IC50,[2],2970 nM
same,IC50,[3],1140 nM
same,IC50,[4],2030 nM
same,IC50,[5],530 nM
same,IC50,[6],1340 nM
same,IC50,[7],10 nM
same,IC50,[8],1900 nM
same,IC50,[9],850 nM
same,IC50,[10],360 nM
same,IC50,[11],370 nM
same,IC50,[12],40 nM
same,IC50,[13],2940 nM
same,IC50,[14],2470 nM
same,IC50,[15],180 nM
same,IC50,[16],2180 nM
same,IC50,[17],1030 nM
same,IC50,[18],2600 nM
same,IC50,[19],2660 nM
same,IC50,[20],870 nM
same,IC50,[21],3020 nM
same,IC50,[22],1640 nM
same,IC50,[23],1820 nM
same,IC50,[24],3380 nM
same,IC50,[25],560 nM
same,IC50,HIV-1LAI,4.7 nM
same,IC50,[26],> 1000 nM
same,IC50,[27],> 1000 nM
same,IC50,[28],> 1000 nM
same,IC50,[29],> 1000 nM
same,IC50,HIV-1ERS104pre,55 nM
same,IC50,[30],> 1000 nM
same,IC50,[31],> 1000 nM
same,IC50,[32],> 1000 nM
same,IC50,[33],> 1000 nM
Cc1ccc(S(=O)(=O)N(CC(C)C)CC(O)C(Cc2ccccc2)NC(=O)OC2COC3OCCC23)cc1 (centres unmarked),Ki,wild-type HIV protease,1.2 nM
same,IC50,wild-type HIV,3.5 nM
